Holding throughout (experiment): relative viability (nuclei count vs DMSO), 5 days (fraction); higher = more cells survive
Compound in the assay “Linifanib + Foretinib”: Cc1ccc(F)c(NC(=O)Nc2ccc(-c3cccc4[nH]nc(N)c34)cc2)c1 [Linifanib] + COc1cc2c(Oc3ccc(NC(=O)C4(C(=O)Nc5ccc(F)cc5)CC4)cc3F)ccnc2cc1OCCCN1CCOCC1 [Foretinib] (partner 0.25 µM)
Put shortly:
(§1)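 Relative viability equals treated-well nuclei counts divided by vehicle-well nuclei counts. Counts came from 4× images of lung cancer cell lines grown in 1536-well plates for 5 days after pin-tool dosing on the day after seeding. Dosing used one drug alone or a fixed anchor-drug dose plus five library-drug doses (not always all listed) in √10 steps, and values are medians of duplicate plates.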

Compound in the assay “Linifanib + Pemetrexed”: Cc1ccc(F)c(NC(=O)Nc2ccc(-c3cccc4[nH]nc(N)c34)cc2)c1 [Linifanib] + Nc1nc2[nH]cc(CCc3ccc(C(=O)N[C@@H](CCC(=O)O)C(=O)O)cc3)c2c(=O)[nH]1 [Pemetrexed] (partner 0.2 µM)
Put shortly: as §1

Compound in the assay “Linifanib + Navitoclax”: Cc1ccc(F)c(NC(=O)Nc2ccc(-c3cccc4[nH]nc(N)c34)cc2)c1 [Linifanib] + CC1(C)CCC(c2ccc(Cl)cc2)=C(CN2CCN(c3ccc(C(=O)NS(=O)(=O)c4ccc(N[C@H](CCN5CCOCC5)CSc5ccccc5)c(S(=O)(=O)C(F)(F)F)c4)cc3)CC2)C1 [Navitoclax] (partner 0.5 µM)
In short, it runs like this:
as §1

Compound in the assay “Linifanib + Dasatinib”: Cc1ccc(F)c(NC(=O)Nc2ccc(-c3cccc4[nH]nc(N)c34)cc2)c1 [Linifanib] + Cc1nc(Nc2ncc(C(=O)Nc3c(C)cccc3Cl)s2)cc(N2CCN(CCO)CC2)n1 [Dasatinib] (partner 0.075 µM)
In short, it runs like this: as §1

Compound in the assay “Linifanib + Decitabine”: Cc1ccc(F)c(NC(=O)Nc2ccc(-c3cccc4[nH]nc(N)c34)cc2)c1 [Linifanib] + Nc1ncn([C@H]2C[C@H](O)[C@@H](CO)O2)c(=O)n1 [Decitabine] (partner 2 µM)
In short, it runs like this: as §1

Compound in the assay “Linifanib + Linsitinib”: Cc1ccc(F)c(NC(=O)Nc2ccc(-c3cccc4[nH]nc(N)c34)cc2)c1 [Linifanib] + C[C@]1(O)C[C@@H](c2nc(-c3ccc4ccc(-c5ccccc5)nc4c3)c3c(N)nccn32)C1 [Linsitinib] (partner 1 µM)
In short, it runs like this: as §1

As for NCI-H520, the relative viability with Linifanib + Foretinib (first compound 0.03162 µM) was found to be 0.741; in the assay with Linifanib + Foretinib (first compound 0.1 µM), 1.01; in the assay with Linifanib + Foretinib (first compound 0.3162 µM) it was 0.708; in the assay with Linifanib + Pemetrexed (first compound 0.03162 µM), 0.629; with Linifanib + Pemetrexed (first compound 0.1 µM), 0.696; in the assay with Linifanib + Pemetrexed (first compound 0.3162 µM), 0.635. Further, the relative viability with Linifanib + Navitoclax (first compound 0.03162 µM) was 1.02; in the assay with Linifanib + Navitoclax (first compound 0.1 µM), 1.1; with Linifanib + Navitoclax (first compound 0.3162 µM) it was 1.05; with Linifanib + Dasatinib (first compound 0.03162 µM), 0.19; in the assay with Linifanib + Dasatinib (first compound 0.1 µM) it was 0.206; with Linifanib + Dasatinib (first compound 0.3162 µM) it was 0.208. Also, the relative viability in the assay with Linifanib + Decitabine (first compound 0.03162 µM) was 0.461; with Linifanib + Decitabine (first compound 0.1 µM), 0.6; with Linifanib + Decitabine (first compound 0.3162 µM), 0.542; with Linifanib + Linsitinib (first compound 0.03162 µM) it was 1.07; in the assay with Linifanib + Linsitinib (first compound 0.1 µM) it was 1; with Linifanib + Linsitinib (first compound 0.3162 µM), 0.811.

For NCI-H1734, the relative viability with Linifanib + Foretinib (first compound 0.03162 µM) came out at 0.87; in the assay with Linifanib + Foretinib (first compound 0.1 µM), 0.989; with Linifanib + Foretinib (first compound 0.3162 µM), 0.856; with Linifanib + Pemetrexed (first compound 0.03162 µM), 0.401; with Linifanib + Pemetrexed (first compound 0.1 µM), 0.447; in the assay with Linifanib + Pemetrexed (first compound 0.3162 µM), 0.45. Further, the relative viability in the assay with Linifanib + Navitoclax (first compound 0.03162 µM) was 0.851; with Linifanib + Navitoclax (first compound 0.1 µM) it was 0.808; with Linifanib + Navitoclax (first compound 0.3162 µM), 0.789; with Linifanib + Dasatinib (first compound 0.03162 µM), 0.529; with Linifanib + Dasatinib (first compound 0.1 µM), 0.53; in the assay with Linifanib + Dasatinib (first compound 0.3162 µM), 0.428. Further, the relative viability with Linifanib + Decitabine (first compound 0.03162 µM) amounted to 0.493; with Linifanib + Decitabine (first compound 0.1 µM), 0.514; with Linifanib + Decitabine (first compound 0.3162 µM) it was 0.508; with Linifanib + Linsitinib (first compound 0.03162 µM) it was 0.869; in the assay with Linifanib + Linsitinib (first compound 0.1 µM) it was 0.925; with Linifanib + Linsitinib (first compound 0.3162 µM), 0.849.

In the case of NCI-H1975, the relative viability with Linifanib + Foretinib (first compound 0.03162 µM) was determined as 0.892; with Linifanib + Foretinib (first compound 0.1 µM), 1.01; with Linifanib + Foretinib (first compound 0.3162 µM), 1.02; in the assay with Linifanib + Pemetrexed (first compound 0.03162 µM), 0.293; in the assay with Linifanib + Pemetrexed (first compound 0.1 µM), 0.317; with Linifanib + Pemetrexed (first compound 0.3162 µM), 0.278. For the same cell line, the relative viability turned out to be 1.05 in the assay with Linifanib + Navitoclax (first compound 0.03162 µM); 1.22 with Linifanib + Navitoclax (first compound 0.1 µM); 1.08 in the assay with Linifanib + Navitoclax (first compound 0.3162 µM); 0.396 with Linifanib + Dasatinib (first compound 0.03162 µM); 0.367 with Linifanib + Dasatinib (first compound 0.1 µM); 0.344 with Linifanib + Dasatinib (first compound 0.3162 µM). Further, the relative viability with Linifanib + Decitabine (first compound 0.03162 µM) was 0.384; with Linifanib + Decitabine (first compound 0.1 µM) it was 0.446; in the assay with Linifanib + Decitabine (first compound 0.3162 µM) it was 0.413; with Linifanib + Linsitinib (first compound 0.03162 µM), 0.898; with Linifanib + Linsitinib (first compound 0.1 µM), 0.98; with Linifanib + Linsitinib (first compound 0.3162 µM), 1.02.

For LU99A, the relative viability with Linifanib + Foretinib (first compound 0.03162 µM) is 0.856; in the assay with Linifanib + Foretinib (first compound 0.1 µM), 0.973; in the assay with Linifanib + Foretinib (first compound 0.3162 µM), 0.826; with Linifanib + Pemetrexed (first compound 0.03162 µM), 0.182; with Linifanib + Pemetrexed (first compound 0.1 µM) it was 0.171; with Linifanib + Pemetrexed (first compound 0.3162 µM), 0.202. Besides, the relative viability with Linifanib + Navitoclax (first compound 0.03162 µM) was determined as 0.747; with Linifanib + Navitoclax (first compound 0.1 µM) it was 0.775; in the assay with Linifanib + Navitoclax (first compound 0.3162 µM), 0.743; with Linifanib + Dasatinib (first compound 0.03162 µM), 0.547; with Linifanib + Dasatinib (first compound 0.1 µM) it was 0.66; in the assay with Linifanib + Dasatinib (first compound 0.3162 µM), 0.488. The relative viability amounted to 0.932 with Linifanib + Decitabine (first compound 0.03162 µM); 1.02 with Linifanib + Decitabine (first compound 0.1 µM); 0.824 in the assay with Linifanib + Decitabine (first compound 0.3162 µM); 0.503 with Linifanib + Linsitinib (first compound 0.03162 µM); 0.551 with Linifanib + Linsitinib (first compound 0.1 µM); 0.505 in the assay with Linifanib + Linsitinib (first compound 0.3162 µM).

NCI-H1793: the relative viability with Linifanib + Foretinib (first compound 0.03162 µM) is 0.843; with Linifanib + Foretinib (first compound 0.1 µM), 0.953; with Linifanib + Foretinib (first compound 0.3162 µM), 0.734; in the assay with Linifanib + Pemetrexed (first compound 0.03162 µM) it was 0.939; with Linifanib + Pemetrexed (first compound 0.1 µM) it was 1.17; in the assay with Linifanib + Pemetrexed (first compound 0.3162 µM) it was 1.07. The relative viability was 0.553 in the assay with Linifanib + Navitoclax (first compound 0.03162 µM); 0.429 with Linifanib + Navitoclax (first compound 0.1 µM); 0.444 in the assay with Linifanib + Navitoclax (first compound 0.3162 µM); 0.394 in the assay with Linifanib + Dasatinib (first compound 0.03162 µM); 0.439 in the assay with Linifanib + Dasatinib (first compound 0.1 µM); 0.406 in the assay with Linifanib + Dasatinib (first compound 0.3162 µM). The relative viability is 0.486 with Linifanib + Decitabine (first compound 0.03162 µM); 0.412 with Linifanib + Decitabine (first compound 0.1 µM); 0.586 in the assay with Linifanib + Decitabine (first compound 0.3162 µM); 0.897 with Linifanib + Linsitinib (first compound 0.03162 µM); 0.976 with Linifanib + Linsitinib (first compound 0.1 µM); 0.817 in the assay with Linifanib + Linsitinib (first compound 0.3162 µM).

In the case of NCI-H1355, the relative viability was 0.994 with Linifanib + Foretinib (first compound 0.03162 µM); 1.04 with Linifanib + Foretinib (first compound 0.1 µM); 0.941 in the assay with Linifanib + Foretinib (first compound 0.3162 µM); 1.07 with Linifanib + Pemetrexed (first compound 0.03162 µM); 1.13 with Linifanib + Pemetrexed (first compound 0.1 µM); 1.08 with Linifanib + Pemetrexed (first compound 0.3162 µM). In addition, the relative viability with Linifanib + Navitoclax (first compound 0.03162 µM) worked out at 0.891; with Linifanib + Navitoclax (first compound 0.1 µM), 0.953; with Linifanib + Navitoclax (first compound 0.3162 µM), 0.963; with Linifanib + Dasatinib (first compound 0.03162 µM), 0.76; with Linifanib + Dasatinib (first compound 0.1 µM) it was 0.859; with Linifanib + Dasatinib (first compound 0.3162 µM), 0.697. Further, the relative viability with Linifanib + Decitabine (first compound 0.03162 µM) came to 0.352; with Linifanib + Decitabine (first compound 0.1 µM), 0.387; with Linifanib + Decitabine (first compound 0.3162 µM), 0.338; with Linifanib + Linsitinib (first compound 0.03162 µM), 0.843; with Linifanib + Linsitinib (first compound 0.1 µM), 0.876; in the assay with Linifanib + Linsitinib (first compound 0.3162 µM) it was 0.852.

For NCI-H2023, the relative viability with Linifanib + Foretinib (first compound 0.03162 µM) came to 0.807; with Linifanib + Foretinib (first compound 0.1 µM), 0.806; with Linifanib + Foretinib (first compound 0.3162 µM), 0.836; in the assay with Linifanib + Pemetrexed (first compound 0.03162 µM), 0.259; with Linifanib + Pemetrexed (first compound 0.1 µM) it was 0.275; in the assay with Linifanib + Pemetrexed (first compound 0.3162 µM), 0.232. The relative viability was determined as 0.929 with Linifanib + Navitoclax (first compound 0.03162 µM); 1.07 in the assay with Linifanib + Navitoclax (first compound 0.1 µM); 0.981 with Linifanib + Navitoclax (first compound 0.3162 µM); 0.543 with Linifanib + Dasatinib (first compound 0.03162 µM); 0.681 in the assay with Linifanib + Dasatinib (first compound 0.1 µM); 0.565 with Linifanib + Dasatinib (first compound 0.3162 µM). Also, the relative viability in the assay with Linifanib + Decitabine (first compound 0.03162 µM) was found to be 0.228; with Linifanib + Decitabine (first compound 0.1 µM), 0.228; with Linifanib + Decitabine (first compound 0.3162 µM) it was 0.203; in the assay with Linifanib + Linsitinib (first compound 0.03162 µM), 0.681; with Linifanib + Linsitinib (first compound 0.1 µM), 0.676; with Linifanib + Linsitinib (first compound 0.3162 µM), 0.652.

Consider LOU-NH91, for which the relative viability amounted to 0.942 with Linifanib + Foretinib (first compound 0.03162 µM); 0.981 in the assay with Linifanib + Foretinib (first compound 0.1 µM); 0.884 in the assay with Linifanib + Foretinib (first compound 0.3162 µM); 0.416 with Linifanib + Pemetrexed (first compound 0.03162 µM); 0.372 with Linifanib + Pemetrexed (first compound 0.1 µM); 0.364 with Linifanib + Pemetrexed (first compound 0.3162 µM). Further, the relative viability with Linifanib + Navitoclax (first compound 0.03162 µM) was 0.656; in the assay with Linifanib + Navitoclax (first compound 0.1 µM), 0.753; in the assay with Linifanib + Navitoclax (first compound 0.3162 µM), 0.594; in the assay with Linifanib + Dasatinib (first compound 0.03162 µM) it was 0.61; in the assay with Linifanib + Dasatinib (first compound 0.1 µM), 0.612; with Linifanib + Dasatinib (first compound 0.3162 µM) it was 0.558. In addition, the relative viability worked out at 0.812 with Linifanib + Decitabine (first compound 0.03162 µM); 0.785 with Linifanib + Decitabine (first compound 0.1 µM); 0.814 in the assay with Linifanib + Decitabine (first compound 0.3162 µM); 0.899 with Linifanib + Linsitinib (first compound 0.03162 µM); 1.01 with Linifanib + Linsitinib (first compound 0.1 µM); 0.954 with Linifanib + Linsitinib (first compound 0.3162 µM).

(Values after the supplement of paper PMC10307832.)
